One test addresses T1, KRAS^G12D D38A (Homo sapiens, UniProt P01116, D38A/G12D).
T1 construct: His6 (N); made in house
As to the kind of experiment: Microscale thermophoresis on binding-site mutant KRAS^G12D D38A. The note with it: for Kd: MST. On the procedure: (§1) Mutagenesis of the KRAS^G12D plasmid was performed using a QuikChange XL site-directed mutagenesis kit from Agilent technologies, according to the manufacturer's protocol. Primers were designed using the Agilent QuikChange Primer Design application and purchased from Integrated DNA Technologies. KRAS^G12D D38A forward primer 5′ ATATGATCCAACAATAGAGGCTTCCTACAGGAAGCAAGTAG 3′ (SEQ ID NO: 66), KRAS^G12D D38A reverse primer 5′ CTACTTGCTTCCTGTAGGAAGCCTCTATTGTTGGATCATAT 3′ (SEQ ID NO: 67), KRAS^G12D I36N forward primer 5′ CATTTTGTGGACGAATATGATCCAACAAATGAGGATTCCTACAGG 3′ (SEQ ID NO: 68), KRAS^G12D I36N reverse primer 5′ CCTGTAGGAATCCTCATTTGTTGGATCATATTCGTCCACAAAATG 3′ (SEQ ID NO: 69). DNA sequencing was performed to confirm the correct amino acid sequence of the construct (GeneWiz, Inc.).
(§2) KRAS^G12D (250 μM) in 25 mM HEPES, 100 mM sodium chloride, 2 mM TCEP with 20 mM EDTA and 1 mM GppNHp was shaken at 220 rpm at 30° C. to remove the endogenous nucleotide, The solution was placed on ice for 2 minutes prior to the addition of 65 mM MgCl2. After an additional 10 minutes incubation on ice, 200 uL of a 10 uM solution of KRAS^G12D was combined with 200 uL of a 20 uM solution of NT-647-NHS-ester dye (from a 652.4 μM stock). The protein/dye mixture was rotated at 4° C. for 30 minutes, before being separated from the excess dye and buffer exchanged into 25 mM Tris, 100 mM sodium chloride, 2 mM TCEP, and 5 mM MgCl2 via a nap-5 column. The test compounds were arrayed across a 16-point dilution series consisting of 1.5% DMSO with 25 mM Tris, 100 mM NaCl, 2 mM TCEP, 5 mM MgCl2 and 0.05% tween-20. Thermophoretic movement of the fluorescently labeled protein with the inhibitors was performed using a Monolith NT.115 (Nanotemper Technologies). RALA and RHOA were purchased commercially from Abcam (RALA CN:ab102555, RHOA CN:ab101594).
A set of 45 of the closest matches (ranging from 0.85-0.97 Tanimoto coefficient) were synthesized (based on Scheme 2 with appropriate modifications) and tested for their ability to bind to KRAS^G12D by differential scanning fluorimetry.
On the technique in general: MST reads how a fluorescent partner responds to local heating, with and without ligand.

For a further test, the target named is T2, KRAS^G12D I36N (Homo sapiens, UniProt P01116, G12D/I36N).
T2 construct: His6 (N); made in house
T2 sequence (P01116 1-169 isoform P01116-2 G12D/I36N): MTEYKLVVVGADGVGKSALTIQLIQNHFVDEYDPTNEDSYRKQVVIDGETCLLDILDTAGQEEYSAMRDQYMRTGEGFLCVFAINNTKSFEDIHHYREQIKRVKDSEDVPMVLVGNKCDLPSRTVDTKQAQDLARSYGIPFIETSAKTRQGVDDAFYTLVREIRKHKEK
As to the kind of experiment: Microscale thermophoresis on binding-site mutant KRAS^G12D I36N. The note with it: MST. On the procedure:
as §1
as §2, with “CN:ab101594). […]” for “CN:ab101594).”

For the next test, the target named is T3, GppNHp-loaded KRASG12D (Homo sapiens, UniProt P01116, G12D).
T3 construct: made in house; host or cells: Escherichia coli BL21-Gold (DE3)
T3 sequence (P01116 1-169 isoform P01116-2 G12D): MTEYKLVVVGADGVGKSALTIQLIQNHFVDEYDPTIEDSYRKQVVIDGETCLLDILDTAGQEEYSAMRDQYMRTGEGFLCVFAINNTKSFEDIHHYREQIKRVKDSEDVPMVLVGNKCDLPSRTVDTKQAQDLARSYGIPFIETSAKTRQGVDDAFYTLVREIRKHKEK
In words: Isothermal titration calorimetry. The class given is binding. The note with it: ITC, 25° C.; read-out: dissociation constant. On the procedure:
Isothermal Titration Calorimetry (ITC)
All ITC experiments were carried out at 25° C. on a MicoCal Auto-ITC200 system (GE Healthcare).
450 μL of the compound solution was loaded into the cell at 250 μM in ITC buffer (25 mM Tris pH 7.4, 1 mM TCEP, 100 mM NaCl, 5 mM MgCl2, 0.05% Tween-20) with a final DMSO concentration at 1.25% (v/v). KRAS^G12D⋅GppNHp was buffer exchanged into same ITC buffer using Amicon Ultra 10 kDa size exclusion filter spin columns (buffer replaced with ITC buffer four times). Prior to loading 130 μL of KRAS^G12D⋅GppNHp into the syringe at 2.5 mM, DMSO was added to match the amount DMSO present in the cell. ITC titration experiments were carried out at 25° C. with 19 injections, 2 μl per injection, and 180 seconds between each injection. Reference cell power was set to 5 μcal/sec. A control experiment was performed where ITC buffer was titrated into compound 31MEW44 alone to account for heat released due to dilution. This background was subtracted from test data before the final dissociation constant was obtained. Data were analyzed using the one-site binding model in Origin 7.1 software. The dissociation constant, Kd, was calculated according to equation Kd=1/Ka. Gibbs free energy, ΔG, was calculated from the equation ΔG=−RTInKa. −TΔS was calculated from the equation ΔG=ΔH−TΔS. All other parameters, Ka, n, ΔH, were determined directly from the titration data.

In a further test the test system is A549 (KRAS^G12S). As to the kind of experiment: Cell viability assay (384-well, Alamar blue). Type of test: cell-based. The note with it: Homo sapiens, Table 8, 48 hours. On the procedure:
(§3) All cell culture assays were incubated at 37° C., 5% CO2 in media containing Dulbecco's Modified Eagle Medium (DMEM) with 10% fetal bovine serum (FBS) and 1% penicillin-streptomycin (PS). 384-well format for EC50 determination: cells were trypsinized, counted, and seeded into 384-well plates at 1,000 cells/well. After 12-16 hours, compounds (as 50 mM stocks in DMSO) were arrayed in an 8- or 16-point dilution series in 384-well polypropylene plates. Compound solutions were transferred at a 1:5 dilution into the assay plates. After 48 hours, a 50% Alamar blue solution was added to a final concentration of 10% Alamar blue. After 6 hours of incubation, fluorescence intensity was determined using a Victor3 plate reader (Perkin Elmer) with a 535 nm excitation filter and a 590 nm emission filter. All compound measurements were performed in triplicate. For experiments performed in 6-well format, cells were trypsinized, counted, and seeded into 6-well plates at 200,000 cells per well 16 h prior to use. Media was then aspirated and replaced with 2 mL of media containing compounds at the indicated concentrations (from 10 mM stocks in DMSO). After 24 hours, cells were trypsinized and viability was determined using Trypan Blue exclusion assay.
For orientation: Resazurin is reduced to fluorescent resorufin, in cell work by metabolically active cells.

The test system of the next test is H23 (KRAS^G12C). As to the kind of experiment: Cell viability assay (384-well, Alamar blue). Type of test: cell-based. The note with it: Table 8, 48 hours. On the procedure:
as §3

The test system of another test is H441 (KRAS^G12V). As to the kind of experiment: Cell viability assay (384-well, Alamar blue). Type of test: cell-based. The note with it: Homo sapiens, NCI-H441, Table 8, 48 hours. On the procedure:
as §3

For test [1], the system named is Mia-Paca2, NCI-H441, NCI-H23, BJeLR and HT1080 cells. As to the kind of experiment: Expression of the mutant RAS isoform by qPCR. The class given is cell-based. The note with it: 4 and 24 hours, 10 μM. An excerpt: Samples were normalized to DMSO treatment.
In addition to altering genes associated with RAS activation, it was hypothesized that upon inhibitor treatment, cells would attempt to compensate by expressing additional RAS proteins.
Background: Quantitative PCR measures a nucleic acid by following its amplification.

Here are results for one molecule from US9926293B2, “Multivalent RAS binding compounds” (THE TRUSTEES OF COLUMBIA UNIVERSITY IN THE CITY OF NEW YORK, priority 2014, dated 2018).

Molecules are shown by their SMILES.

T1 sequence (P01116 1-169 isoform P01116-2 G12D/D38A): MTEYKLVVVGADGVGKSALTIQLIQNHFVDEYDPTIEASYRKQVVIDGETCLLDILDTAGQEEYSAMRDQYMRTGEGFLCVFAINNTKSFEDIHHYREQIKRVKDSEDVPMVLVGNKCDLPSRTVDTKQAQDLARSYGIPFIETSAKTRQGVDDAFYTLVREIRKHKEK

Regarding `NC1(C(=O)NCCCn2cc(-c3ccc(OC(F)(F)F)cc3)c3cc(CN4CCN(Cc5c(Cl)cccc5Cl)CC4)ccc32)CCNCC1` [Compound 31MEW44, 4-amino-N-(3-(5-((4-(2,6-dichlorobenzyl)piperazin-1-yl)methyl)-3-(4-(trifluoromethoxy)phenyl)-1H-indol-1-yl)propyl)piperidine-4-carboxamide], the “loss in binding affinity” value on KRAS^G12D D38A (I36N and D38A mutants vs KRAS^G12D) is reported as 3.5 to 21 fold; at KRAS^G12D D38A (binding-site mutants D38A and I36N) it was 5-10 fold. The Kd was determined as 33 µM at KRAS^G12D D38A (31MEW44, FIG. 14H); 1.9 µM at KRAS^G12D D38A (31MEW44, first experiment); 200 µM at KRAS^G12D I36N (31MEW44, FIG. 14H); 1.1 µM at KRAS^G12D I36N (31MEW44, first experiment); 34 µM at GppNHp-loaded KRASG12D. The 50% effective concentration (EC50) (in general, the concentration at which the effect is half-maximal) worked out at 4.8 µM with A549 (KRAS^G12S), 2400 nM in the test on H23 (KRAS^G12C) and 4.9 µM with H441 (KRAS^G12V). In test [1], the RAS expression entry is recorded as “time-dependent increase of RAS expression”.
